Data reported in patent publication US11946028B2, “Fibrosis model on a chip” (The Trustees of the University of Pennsylvania, priority 2015, dated 2024).

Tested on: human lung fibroblasts
Experiment: Serum-induced fibrosis in biomimetic five-layer lung fibrosis model
Type: cell-based
Details: 2 μM PP2 added to medium 24 hours after assembly, maintained for the study; 0.2% serum in the model; FIG. 20
Source text: The first and second channel slabs and the chamber slab of the model were formed using soft lithography techniques, in which the PDMS mixture was poured over the mold, and the slabs were allowed to cure. The microchannels were etched into each of the channel slabs, with the dimensions of 10 mm×1 mm×0.15 mm (length×width×height). The chamber was etched into the chamber slab, with the dimensions of 6 mm×3 mm×1 mm (length×width×height). See FIG. 9 for a picture of the five-layer model and FIG. 2A-2B for a schematic of the five-layer model.
Next, the cellular physiology of the cell-lined fluidic channels with the gel layer of the five-layer model was examined (FIG. 11). In this instance, the upper channel contained human lung endothelial cells cultured with commercially available medium from the supplying vendor of the cells. The lower channel contained small airway epithelial cells with similar specific medium, both from same vendor. The gel was created by adding collagen to physiological aqueous buffer at a concentration of 2 mg/ml and kept at 4° C. Human lung fibroblasts (100 K cells/ml) were added to the gel during the liquid phase. The side of the membranes facing the chamber slab were treated with sulfo-sanpah to promote collagen/ECM anchorage. The lower channel slab, lower membrane, and chamber slab were stacked. The gel was then pipetted into the chamber. […]

Structure (SMILES): CC(C)(C)n1nc(-c2ccc(Cl)cc2)c2c(N)ncnc21 [PP2]
- effect on serum-induced fibrosis: reduced fibrosis
